SMILES strings stand for the structures.

For the first experiment, the system named is recombinant NL4-3 virus (Renilla luciferase in nef, Gag P373S). Kind of experiment: HIV cell culture assay (luciferase reporter, MT-2 cells). In kind it is cell-based, HIV-1. The settings on record: MT-2 cells infected for 4-5 days with NLRluc recombinants; luciferase activity; serial dilutions of inhibitor. A digest of the protocol: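 MT-2 cells infected with recombinant NL4-3 carrying Renilla luciferase in place of part of nef and Gag P373S, virus made by 293T transfection. Infection ran 4-5 days with serial inhibitor dilutions. Antiviral activity read as luciferase activity (Dual Luciferase reagents mixed with lysis buffer).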
(In general: A reporter such as luciferase makes a cellular process visible.)
As a reminder, the EC50 is the midpoint of the concentration-response curve. As to `CC([C@@H]1CC[C@]2(NCCN3CCS(=O)(=O)CC3)CC[C@]3(C)[C@H](CC[C@@H]4[C@@]5(C)CC=C(c6ccc(C(=O)O)cc6)C(C)(C)[C@@H]5CC[C@]43C)[C@@H]12)N(C)C` (single isomer, unassigned) [Example B40], the EC50 worked out at 40 nM.
Still for that read-out and setting: in the case of `CC(CO)[C@@H]1CC[C@]2(NCCN3CCS(=O)(=O)CC3)CC[C@]3(C)[C@H](CC[C@@H]4[C@@]5(C)CC=C(c6ccc(C(=O)O)cc6)C(C)(C)[C@@H]5CC[C@]43C)[C@@H]12` (single isomer, unassigned) [Example B6] it was 3.75 nM; in that of `CC(CC(=O)O)[C@@H]1CC[C@]2(C(=O)NCCN(C)C)CC[C@]3(C)[C@H](CC[C@@H]4[C@@]5(C)CC[C@H](c6ccc(C(=O)O)cc6)C(C)(C)[C@@H]5CC[C@]43C)[C@@H]12` (single isomer, unassigned) [Example 21], 40 nM; in that of `CC(O)(CO)[C@@H]1CC[C@]2(NCCN3CCS(=O)(=O)CC3)CC[C@]3(C)[C@H](CC[C@@H]4[C@@]5(C)CC=C(c6ccc(C(=O)O)cc6)C(C)(C)[C@@H]5CC[C@]43C)[C@@H]12` (single isomer, unassigned) [Example B10], 6.67 nM.
The same measure, in the same setting: the figure for `CC(C(=O)O)[C@@H]1CC[C@]2(NCCN3CCS(=O)(=O)CC3)CC[C@]3(C)[C@H](CC[C@@H]4[C@@]5(C)CC=C(c6ccc(C(=O)O)c(F)c6)C(C)(C)[C@@H]5CC[C@]43C)[C@@H]12` (stereo partly drawn) [Example A7, 4-((1R,3aS,5aR,5bR,7aR,11aS,11bR,13aR,13bR)-1-(1-carboxyethyl)-3a-((2-(1,1-dioxidothiomorpholino)ethyl)amino)-5a,5b,8,8,11a-pentamethyl-2,3,3a,4,5,5a,5b,6,7,7a,8,11,11a,11b,12,13,13a,13b-octadecahydro-1H-cyclopenta[a]chrysen-9-yl)-2-fluorobenzoic acid] is 110 nM.

Staying with this experiment, now noted: Renilla, NL43, MT-2 cells infected for 4-5 days with NLRluc recombinants; luciferase activity; serial dilutions of inhibitor.
For the compound `CN[C@@H]1CC[C@]2(NCCN3CCS(=O)(=O)CC3)CC[C@]3(C)[C@H](CC[C@@H]4[C@@]5(C)CC=C(c6ccc(C(=O)O)cc6)C(C)(C)[C@@H]5CC[C@]43C)[C@@H]12` [Example B37, 4-((1R,3aR,5aR,5bR,7aR,11aS,11bR,13aR,13bS)-3a-((2-(1,1-dioxidothiomorpholino)ethyl)amino)-5a,5b,8,8,11a-pentamethyl-1-(methylamino)-2,3,3a,4,5,5a,5b,6,7,7a,8,11,11a,11b,12,13,13a,13b-octadecahydro-1H-cyclopenta[a]chrysen-9-yl)benzoic acid], the EC50 is 40 nM.
The same measure, in the same setting: the figure for `CC1(C)C(c2ccc(C(=O)O)cc2)=CC[C@]2(C)[C@H]3CC[C@@H]4[C@H]5[C@H](c6nnco6)CC[C@]5(NCCN5CCS(=O)(=O)CC5)CC[C@@]4(C)[C@]3(C)CC[C@@H]12` [Example B31, 4-((1R,3aS,5aR,5bR,7aR,11aS,11bR,13aR,13bS)-3a-((2-(1,1-dioxidothiomorpholino)ethyl)amino)-5a,5b,8,8,11a-pentamethyl-1-(1,3,4-oxadiazol-2-yl)-2,3,3a,4,5,5a,5b,6,7,7a,8,11,11a,11b,12,13,13a,13b-octadecahydro-1H-cyclopenta[a]chrysen-9-yl)benzoic acid] is 30 nM.
With `CC1(C)C(c2ccc(C(=O)O)cc2)=CC[C@]2(C)[C@H]3CC[C@@H]4[C@H]5[C@H](C(=O)N6CCOCC6)CC[C@]5(NCCN5CCS(=O)(=O)CC5)CC[C@@]4(C)[C@]3(C)CC[C@@H]12` [Example B27, 4-((1R,3aS,5aR,5bR,7aR,11aS,11bR,13aR,13bS)-3a-((2-(1,1-dioxidothiomorpholino)ethyl)amino)-5a,5b,8,8,11a-pentamethyl-1-(morpholine-4-carbonyl)-2,3,3a,4,5,5a,5b,6,7,7a,8,11,11a,11b,12,13,13a,13b-octadecahydro-1H-cyclopenta[a]chrysen-9-yl)benzoic acid], the EC50 turned out to be 8.11 nM.
With `C=C(COCCN1CCOCC1)[C@@H]1CC[C@]2(C(=O)NCCNCCO)CC[C@]3(C)[C@H](CC[C@@H]4[C@@]5(C)CC=C(c6ccc(C(=O)O)cc6)C(C)(C)[C@@H]5CC[C@]43C)[C@@H]12` [Example 13, 4-((1R,3aS,5aR,5bR,7aR,11aS,11bR,13aR,13bS)-3a-(2-(2-hydroxyethylamino)ethylcarbamoyl)-5a,5b,8,8,11a-pentamethyl-1-(3-(2-morpholinoethoxy)prop-1-en-2-yl)-2,3,3a,4,5,5a,5b,6,7,7a,8,11,11a,11b,12,13,13a,13b-octadecahydro-1H-cyclopenta[a]chrysen-9-yl)benzoic acid], the EC50 was determined as 1.97 nM.
The same measure, in the same setting: in the case of `COCC(C)(O)[C@@H]1CC[C@]2(NCCN3CCS(=O)(=O)CC3)CC[C@]3(C)[C@H](CC[C@@H]4[C@@]5(C)CC=C(c6ccc(C(=O)O)cc6)C(C)(C)[C@@H]5CC[C@]43C)[C@@H]12` (single isomer, unassigned) [Example B1] it was 1.19 nM; in that of `C=C(CNCCN1CCOCC1)[C@@H]1CC[C@]2(C(=O)O)CC[C@]3(C)[C@H](CC[C@@H]4[C@@]5(C)CC=C(c6ccc(C(=O)O)cc6)C(C)(C)[C@@H]5CC[C@]43C)[C@@H]12` [Example 1, (1R,3aS,5aR,5bR,7aR,11aS,11bR,13aR,13bS)-9-(4-carboxyphenyl)-5a,5b,8,8,11a-pentamethyl-1-(3-(2-morpholinoethylamino)prop-1-en-2-yl)-2,3,3a,4,5,5a,5b,6,7,7a,8,11,11a,11b,12,13,13a,13b-octadecahydro-1H-cyclopenta[a]chrysene-3a-carboxylic acid], 40 nM; in that of `COC(C)(C)[C@@H]1CC[C@]2(NCCN3CCS(=O)(=O)CC3)CC[C@]3(C)[C@H](CC[C@@H]4[C@@]5(C)CC=C(c6ccc(C(=O)O)cc6)C(C)(C)[C@@H]5CC[C@]43C)[C@@H]12` [Example B4, 4-((1R,3aS,5aR,5bR,7aR,11aS,11bR,13aR,13bS)-3a-((2-(1,1-dioxidothiomorpholino)ethyl)amino)-1-(2-methoxypropan-2-yl)-5a,5b,8,8,11a-pentamethyl-2,3,3a,4,5,5a,5b,6,7,7a,8,11,11a,11b,12,13,13a,13b-octadecahydro-1H-cyclopenta[a]chrysen-9-yl)benzoic acid], 2.06 nM.
On the same count and under the same terms, in the case of `CN(C)[C@@H]1CC[C@]2(NCCN3CCS(=O)(=O)CC3)CC[C@]3(C)[C@H](CC[C@@H]4[C@@]5(C)CC=C(c6ccc(C(=O)O)cc6)C(C)(C)[C@@H]5CC[C@]43C)[C@@H]12` [Example B38, 4-((1R,3aR,5aR,5bR,7aR,11aS,11bR,13aR,13bS)-1-(dimethylamino)-3a-((2-(1,1-dioxidothiomorpholino)ethyl)amino)-5a,5b,8,8,11a-pentamethyl-2,3,3a,4,5,5a,5b,6,7,7a,8,11,11a,11b,12,13,13a,13b-octadecahydro-1H-cyclopenta[a]chrysen-9-yl)benzoic acid] it was 10 nM.
Consider `CC1(C)C(c2ccc(C(=O)O)cc2)=CC[C@]2(C)[C@H]3CC[C@@H]4[C@H]5[C@H](NC(=O)C(F)(F)F)CC[C@]5(NCCN5CCS(=O)(=O)CC5)CC[C@@]4(C)[C@]3(C)CC[C@@H]12` [Example B43, 4-((1R,3aR,5aR,5bR,7aR,11aS,11bR,13aR,13bS)-3a-((2-(1,1-dioxidothiomorpholino)ethyl)amino)-5a,5b,8,8,11a-pentamethyl-1-(2,2,2-trifluoroacetamido)-2,3,3a,4,5,5a,5b,6,7,7a,8,11,11a,11b,12,13,13a,13b-octadecahydro-1H-cyclopenta[a]chrysen-9-yl)benzoic acid], for which the EC50 came out at 2.12 nM.
Same read-out and setting: in the case of `C=C(CNCCN(C)C)[C@@H]1CC[C@]2(C(=O)O)CC[C@]3(C)[C@H](CC[C@@H]4[C@@]5(C)CC=C(c6ccc(C(=O)O)cc6)C(C)(C)[C@@H]5CC[C@]43C)[C@@H]12` [Example 5, (1R,3aS,5aR,5bR,7aR,11aS,11bR,13aR,13bS)-9-(4-carboxyphenyl)-1-(3-(2-(dimethylamino)ethylamino)prop-1-en-2-yl)-5a,5b,8,8,11a-pentamethyl-2,3,3a,4,5,5a,5b,6,7,7a,8,11,11a,11b,12,13,13a,13b-octadecahydro-1H-cyclopenta[a]chrysene-3a-carboxylic acid] it was 160 nM.
Same read-out and setting: in the case of `CC1([C@@H]2CC[C@]3(C(=O)O)CC[C@]4(C)[C@H](CC[C@@H]5[C@@]6(C)CC=C(c7ccc(C(=O)O)cc7)C(C)(C)[C@@H]6CC[C@]54C)[C@@H]23)CC1` [Example B48, (1R,3aS,5aR,5bR,7aR,11aS,11bR,13aR,13bR)-9-(4-carboxyphenyl)-5a,5b,8,8,11a-pentamethyl-1-(1-methylcyclopropyl)-2,3,3a,4,5,5a,5b,6,7,7a,8,11,11a,11b,12,13,13a,13b-octadecahydro-1H-cyclopenta[a]chrysene-3a-carboxylic acid] it was 10 nM.
The same measure, in the same setting: in the case of `CC1(C)C(c2ccc(C(=O)O)cc2)=CC[C@]2(C)[C@H]3CC[C@@H]4[C@H]5[C@H](C(=O)COS(=O)O)CC[C@]5(NCCN5CCS(=O)(=O)CC5)CC[C@@]4(C)[C@]3(C)CC[C@@H]12` [Example B24, 4-((1R,3aS,5aR,5bR,7aR,11aS,11bR,13aR,13bS)-3a-((2-(1,1-dioxidothiomorpholino)ethyl)amino)-5a,5b,8,8,11a-pentamethyl-1-(2-(sulfinooxy)acetyl)-2,3,3a,4,5,5a,5b,6,7,7a,8,11,11a,11b,12,13,13a,13b-octadecahydro-1H-cyclopenta[a]chrysen-9-yl)benzoic acid] it was 1000 nM.

These data come from US20140221361A1, “C-19 MODIFIED TRITERPENOIDS WITH HIV MATURATION INHIBITORY ACTIVITY” (priority 2013, published 2014).
